The values that follow come from paper PMC4673163, “Natural paniceins from mediterranean sponge inhibit the multidrug resistance activity of Patched and increase chemotherapy efficiency on melanoma cells” (Oncotarget, 2015).

Broadly, the inhibition is the relative decrease from the control value, in per cent.

This test concerns the target T1, human Patched (Patched 1; hPatched-MAP) (Homo sapiens, UniProt Q13635).
T1 construct: gene PTCH1; human Patched with MAP tag from pYEP-hPatched-MAP, expressed in Saccharomyces cerevisiae K699; whole yeast, not purified
T1 sequence (Q13635 1-1447): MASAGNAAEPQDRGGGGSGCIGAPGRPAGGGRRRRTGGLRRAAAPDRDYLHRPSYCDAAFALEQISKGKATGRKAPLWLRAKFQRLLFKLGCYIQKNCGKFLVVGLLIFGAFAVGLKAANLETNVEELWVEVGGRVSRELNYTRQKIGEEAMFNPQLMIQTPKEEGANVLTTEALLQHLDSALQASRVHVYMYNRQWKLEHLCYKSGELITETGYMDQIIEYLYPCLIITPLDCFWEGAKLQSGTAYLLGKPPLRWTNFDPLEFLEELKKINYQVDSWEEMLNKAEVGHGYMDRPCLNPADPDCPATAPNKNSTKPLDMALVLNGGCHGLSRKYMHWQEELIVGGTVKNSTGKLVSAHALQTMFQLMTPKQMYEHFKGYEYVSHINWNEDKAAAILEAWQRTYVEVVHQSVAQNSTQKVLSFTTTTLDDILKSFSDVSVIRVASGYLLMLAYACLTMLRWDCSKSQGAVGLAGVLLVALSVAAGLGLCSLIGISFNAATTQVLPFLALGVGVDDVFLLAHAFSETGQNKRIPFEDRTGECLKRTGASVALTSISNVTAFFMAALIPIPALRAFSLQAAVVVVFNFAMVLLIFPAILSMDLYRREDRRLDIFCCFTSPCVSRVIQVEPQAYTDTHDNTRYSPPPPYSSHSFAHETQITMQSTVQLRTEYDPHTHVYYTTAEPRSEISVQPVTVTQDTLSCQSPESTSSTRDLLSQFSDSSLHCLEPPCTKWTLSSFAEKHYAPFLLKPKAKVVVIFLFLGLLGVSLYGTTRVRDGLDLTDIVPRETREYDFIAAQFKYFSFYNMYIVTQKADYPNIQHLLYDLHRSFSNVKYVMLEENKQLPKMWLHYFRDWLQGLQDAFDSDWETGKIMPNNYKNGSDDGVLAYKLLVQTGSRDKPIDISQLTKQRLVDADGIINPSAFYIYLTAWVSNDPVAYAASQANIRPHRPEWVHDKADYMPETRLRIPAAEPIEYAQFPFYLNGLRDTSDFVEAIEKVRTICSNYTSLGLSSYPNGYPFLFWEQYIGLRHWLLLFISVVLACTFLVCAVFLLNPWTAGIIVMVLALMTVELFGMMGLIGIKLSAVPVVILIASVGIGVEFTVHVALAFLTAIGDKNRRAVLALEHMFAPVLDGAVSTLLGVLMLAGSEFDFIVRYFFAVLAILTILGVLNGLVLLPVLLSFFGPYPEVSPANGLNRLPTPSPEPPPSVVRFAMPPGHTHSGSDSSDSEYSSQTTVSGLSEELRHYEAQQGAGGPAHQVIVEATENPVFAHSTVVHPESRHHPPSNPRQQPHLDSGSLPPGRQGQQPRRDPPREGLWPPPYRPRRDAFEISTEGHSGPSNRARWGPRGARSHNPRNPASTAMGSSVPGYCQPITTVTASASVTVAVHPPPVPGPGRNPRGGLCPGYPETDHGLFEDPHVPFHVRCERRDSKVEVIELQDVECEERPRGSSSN
Nature of the test: doxorubicin efflux from de-energized yeast, fluorescence microscopy. Format: cell-based. The following applies: read-out: % inhibition of dxr efflux at 10 μM.

Molecules are shown by their SMILES.

As for `COc1cc(C)c(CC/C(C)=C/Cc2cc(O)ccc2O)c(C)c1C` [compound 1, panicein A hydroquinone], the inhibition at 10 µM was around 40%.
